Results reported in PubChem BioAssay AID256 (DTP/NCI, 2004).
Inconclusive results and toxic doses are left out. How the source made its calls: active means survival T/C of 150% or more; inactive means T/C below 125% in these data.

System: CD2F1 mice, L1210 leukemia ip, survival T/C
Assay: NCI In Vivo Anticancer Drug Screen. Data for tumor model L1210 Leukemia (intraperitoneal) in CD2F1 (CDF1) mice
Settings: endpoint: mean survival time, higher = longer survival
Summary of the method: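 Activity against a transplanted murine tumor was judged by comparing the compound group with a vehicle group. The outcome in the treated animals was divided by that in the controls.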

[1] = dose: 25.0 mg/kg/injection, schedule: Q01DX009 (ip), vehicle: saline
[2] = dose: 100.0 mg/kg/injection, schedule: Q01DX009 (ip), vehicle: saline with Tween-80
[3] = dose: 100.0 mg/kg/injection, schedule: Q04DX003 (ip), vehicle: saline with Tween-80
[4] = dose: 200.0 mg/kg/injection, schedule: Q01DX009 (ip), vehicle: saline with Tween-80
[5] = dose: 200.0 mg/kg/injection, schedule: Q04DX003 (ip), vehicle: saline with Tween-80
[6] = dose: 400.0 mg/kg/injection, schedule: Q01DX009 (ip), vehicle: saline with Tween-80
[7] = dose: 400.0 mg/kg/injection, schedule: Q04DX003 (ip), vehicle: saline with Tween-80
[8] = dose: 100.0 mg/kg/injection, schedule: Q04DX002 (ip), vehicle: saline with Tween-80
[9] = dose: 100.0 mg/kg/injection, schedule: Q01DX001 (ip), vehicle: saline
[10] = dose: 100.0 mg/kg/injection, schedule: Q04DX003 (ip), vehicle: Klucel (hydroxypropylcellulose) (HPC)
[11] = dose: 100.0 mg/kg/injection, schedule: Q01DX001 (ip), vehicle: saline with Tween-80
[12] = dose: 200.0 mg/kg/injection, schedule: Q01DX001 (ip), vehicle: saline with Tween-80
[13] = dose: 400.0 mg/kg/injection, schedule: Q01DX001 (ip), vehicle: saline with Tween-80
[14] = dose: 100.0 mg/kg/injection, schedule: Q01DX009 (ip), vehicle: saline

Measured: T/C

C[N+]1=C2CCCC2=C(N)CC1
inactive: dose: 6.25 mg/kg/injection, schedule: Q01DX009 (ip), vehicle: saline 105 % of control | dose: 12.5 mg/kg/injection, schedule: Q01DX009 (ip), vehicle: saline 100 % of control | [1] 98 % of control

COC(=O)c1cc2ccccc2cc1OC
inactive: [2] 102 % of control | [3] 95 % of control | [4] 109 % of control | [5] 97 % of control | [6] 101 % of control | [7] 97 % of control

CC1=C(N)C(=O)N(C)C1=O
inactive: dose: 25.0 mg/kg/injection, schedule: Q04DX002 (ip), vehicle: saline with Tween-80 98 % of control | dose: 50.0 mg/kg/injection, schedule: Q04DX002 (ip), vehicle: saline with Tween-80 95 % of control | [8] 98 % of control | dose: 200.0 mg/kg/injection, schedule: Q04DX002 (ip), vehicle: saline with Tween-80 98 % of control

C=C(C)C12CC(COC(=O)c3ccccc3)C34OC5(OC1C3C1OC1(COC(=O)CCCCCCCCCCCCCCC)C(O)C1(O)C(OC(=O)c3ccccc3)C(C)C(C(C)CCCCCCC5O)C14)O2 (stereo not given)
inactive: dose: 6.3 micrograms/kg/injection, schedule: Q01DX009 (ip), vehicle: saline 107 % of control | dose: 12.5 micrograms/kg/injection, schedule: Q01DX009 (ip), vehicle: saline 103 % of control | dose: 25.0 micrograms/kg/injection, schedule: Q01DX009 (ip), vehicle: saline 102 % of control | dose: 50.0 micrograms/kg/injection, schedule: Q01DX009 (ip), vehicle: saline 105 % of control

CC1C(=O)C(Br)CC2C1(C)CCC1C2(C)CCC2(C)C3CC(C)(C)CCC3(C)CCC12C (stereo not given)
inactive: [9] 97 % of control | dose: 200.0 mg/kg/injection, schedule: Q01DX001 (ip), vehicle: saline 97 % of control | dose: 400.0 mg/kg/injection, schedule: Q01DX001 (ip), vehicle: saline 97 % of control

CCCCC(=O)C(=O)OC(OC(=O)C(=O)CCCC)c1ccccc1
inactive: dose: 75.0 mg/kg/injection, schedule: Q01DX001 (ip), vehicle: saline 93 % of control | dose: 150.0 mg/kg/injection, schedule: Q01DX001 (ip), vehicle: saline 97 % of control

O=C(Nc1ccccc1F)Nc1cccc2ccccc12
inactive: [3] 98 % of control | [5] 101 % of control | [7] 96 % of control

ClC1CC[N-]CC1.ClC1CC[N-]CC1.O=C(O)CC(=O)O.[Pt+2]
inactive: dose: 12.5 mg/kg/injection, schedule: Q01DX009 (ip), vehicle: saline with Tween-80 96 % of control | dose: 25.0 mg/kg/injection, schedule: Q01DX009 (ip), vehicle: saline with Tween-80 94 % of control | dose: 50.0 mg/kg/injection, schedule: Q01DX009 (ip), vehicle: saline with Tween-80 102 % of control | [2] 104 % of control | [4] 96 % of control

Nc1ncnc2nc(-c3ccc(C(=O)c4cccc([N+](=O)[O-])c4)cc3)[nH]c12
inactive: [10] 108 % of control | dose: 200.0 mg/kg/injection, schedule: Q04DX003 (ip), vehicle: Klucel (hydroxypropylcellulose) (HPC) 102 % of control | dose: 400.0 mg/kg/injection, schedule: Q04DX003 (ip), vehicle: Klucel (hydroxypropylcellulose) (HPC) 100 % of control

C/C=C/C(O)C(O)/C=C/C (stereo not given)
inactive: [11] 94 % of control | [12] 97 % of control | [13] 97 % of control

OC(c1c(F)c(F)c(C(O)(C(F)(F)F)C(F)(F)F)c(F)c1F)(C(F)(F)F)C(F)(F)F
inactive: [3] 96 % of control | [5] 104 % of control | [7] 96 % of control

O=C(O)CC12CCCCC1CCCC2 (stereo not given)
inactive: dose: 100.0 mg/kg/injection, schedule: Q04DX003 (ip), vehicle: acetone 95 % of control | dose: 200.0 mg/kg/injection, schedule: Q04DX003 (ip), vehicle: acetone 91 % of control | dose: 400.0 mg/kg/injection, schedule: Q04DX003 (ip), vehicle: acetone 90 % of control

O=c1[nH]c(SCc2ccccc2)nc(-c2ccc(Cl)cc2)c1CCO
inactive: dose: 100.0 mg/kg/injection, schedule: Q01DX009 (ip), vehicle: Klucel (hydroxypropylcellulose) (HPC) 87 % of control | dose: 200.0 mg/kg/injection, schedule: Q01DX009 (ip), vehicle: Klucel (hydroxypropylcellulose) (HPC) 89 % of control | dose: 400.0 mg/kg/injection, schedule: Q01DX009 (ip), vehicle: Klucel (hydroxypropylcellulose) (HPC) 88 % of control

Nc1ccc(S(=O)(=O)c2ccc(NCC(=O)O)cc2)cc1
inactive: dose: 100.0 mg/kg/injection, schedule: Q04DX003 (ip), vehicle: saline 100 % of control | dose: 200.0 mg/kg/injection, schedule: Q04DX003 (ip), vehicle: saline 100 % of control | dose: 400.0 mg/kg/injection, schedule: Q04DX003 (ip), vehicle: saline 100 % of control

CCN(CC)CCCCNc1ccc(NCCCCN(CC)CC)c2c1C(=O)c1ccccc1C2=O
inactive: [1] 109 % of control | dose: 50.0 mg/kg/injection, schedule: Q01DX009 (ip), vehicle: saline 90 % of control | [14] 95 % of control

O=C1c2ccccc2C(=O)N1CNc1cccc(NCN2C(=O)c3ccccc3C2=O)c1
inactive: dose: 100.0 mg/kg/injection, schedule: Q01DX009 (ip), vehicle: acetone 98 % of control | dose: 200.0 mg/kg/injection, schedule: Q01DX009 (ip), vehicle: acetone 103 % of control | dose: 400.0 mg/kg/injection, schedule: Q01DX009 (ip), vehicle: acetone 93 % of control

CCN(CC)CCCN(CC(=O)O)CC(=O)O
inactive: [9] 103 % of control

COC1CC(CC2CCC(C)C(C(C)C(=O)O)O2)OC2(OC(C)(C3CCC(C)(C4OC(C5OC(O)(CO)C(C)CC5C)CC4C)O3)CC2C)C1C (stereo not given)
inactive: dose: 0.31 mg/kg/injection, schedule: Q01DX009 (ip), vehicle: Klucel (hydroxypropylcellulose) (HPC) 92 % of control | dose: 0.63 mg/kg/injection, schedule: Q01DX009 (ip), vehicle: Klucel (hydroxypropylcellulose) (HPC) 106 % of control | dose: 1.25 mg/kg/injection, schedule: Q01DX009 (ip), vehicle: Klucel (hydroxypropylcellulose) (HPC) 110 % of control | dose: 2.5 mg/kg/injection, schedule: Q01DX009 (ip), vehicle: Klucel (hydroxypropylcellulose) (HPC) 106 % of control

CNC(=S)N/N=C/c1c(Cl)n(-c2ccccc2)c2c(/C=N/NC(=S)NC)cccc12
inactive: dose: 25.0 mg/kg/injection, schedule: Q04DX003 (ip), vehicle: Klucel (hydroxypropylcellulose) (HPC) 96 % of control | dose: 50.0 mg/kg/injection, schedule: Q04DX003 (ip), vehicle: Klucel (hydroxypropylcellulose) (HPC) 93 % of control | [10] 89 % of control

O=[N+]([O-])C1C2C=CC(C2)C1c1ccccc1 (stereo not given)
inactive: [2] 102 % of control | [3] 98 % of control | [4] 95 % of control | [5] 102 % of control | [6] 98 % of control | [7] 102 % of control

O=CNC(Cc1ccc(O)cc1)C(=O)O (stereo not given)
inactive: [14] 97 % of control | dose: 200.0 mg/kg/injection, schedule: Q01DX009 (ip), vehicle: saline 94 % of control | dose: 400.0 mg/kg/injection, schedule: Q01DX009 (ip), vehicle: saline 89 % of control

CS(=O)(=O)OCCn1c(=O)n(CCOS(C)(=O)=O)c(=O)n(CCOS(C)(=O)=O)c1=O
inactive: [3] 102 % of control | [5] 98 % of control | [7] 93 % of control

CCC(C=O)(CC)CCC#N
inactive: dose: 25.0 mg/kg/injection, schedule: Q01DX001 (ip), vehicle: Klucel (hydroxypropylcellulose) (HPC) 96 % of control | dose: 50.0 mg/kg/injection, schedule: Q01DX001 (ip), vehicle: Klucel (hydroxypropylcellulose) (HPC) 103 % of control | dose: 100.0 mg/kg/injection, schedule: Q01DX001 (ip), vehicle: Klucel (hydroxypropylcellulose) (HPC) 87 % of control | [11] 103 % of control | [12] 100 % of control | [13] 100 % of control

CCCCS/C=C\C(=O)OCC
inactive: [8] 102 % of control | dose: 400.0 mg/kg/injection, schedule: Q04DX002 (ip), vehicle: saline with Tween-80 102 % of control

O=S1(=O)c2ccccc2Oc2ccccc21
inactive: [2] 97 % of control | [4] 107 % of control | [6] 95 % of control

CC(C)(C)OC(=O)NCCCC(=O)O
inactive: [3] 93 % of control | [5] 90 % of control

O=C1CCC(=O)N1CCC1=NCCc2ccccc21
inactive: [3] 100 % of control | [5] 96 % of control | [7] 100 % of control
